In ChEMBL document CHEMBL1687875, “Flavonoids from eight tropical plant species that inhibit the multidrug resistance transporter ABCG2” (J Nat Prod, 2011):

Target: T1, Broad substrate specificity ATP-binding cassette transporter ABCG2 (Homo sapiens, UniProt Q9UNQ0)
T1 sequence (Q9UNQ0 whole entry): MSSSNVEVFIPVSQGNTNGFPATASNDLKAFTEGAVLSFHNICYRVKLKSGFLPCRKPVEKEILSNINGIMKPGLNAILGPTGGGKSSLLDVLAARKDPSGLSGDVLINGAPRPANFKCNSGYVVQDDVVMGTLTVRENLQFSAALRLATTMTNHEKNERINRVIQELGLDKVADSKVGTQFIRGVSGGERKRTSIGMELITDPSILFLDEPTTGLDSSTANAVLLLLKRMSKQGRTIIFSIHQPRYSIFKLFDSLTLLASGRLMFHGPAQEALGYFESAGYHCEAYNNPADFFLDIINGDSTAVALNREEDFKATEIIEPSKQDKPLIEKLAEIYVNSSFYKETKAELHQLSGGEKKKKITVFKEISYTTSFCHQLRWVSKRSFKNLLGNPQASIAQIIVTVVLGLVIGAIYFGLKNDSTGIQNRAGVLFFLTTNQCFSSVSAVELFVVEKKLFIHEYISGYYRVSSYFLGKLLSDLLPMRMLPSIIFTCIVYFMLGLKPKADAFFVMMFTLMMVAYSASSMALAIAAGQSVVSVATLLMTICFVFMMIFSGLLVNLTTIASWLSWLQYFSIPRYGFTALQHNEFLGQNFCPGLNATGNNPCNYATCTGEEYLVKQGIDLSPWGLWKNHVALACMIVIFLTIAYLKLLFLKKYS
Test: Inhibition of ABCG2 expressed in human NCI-H460 cells assessed as increase in PhA accumulation after 2 to 20 hrs relative to fumitremorgin C

Row | Compound | IC50 [µM]
1 | CC(C)=CCC/C(C)=C/Cc1c(O)cc(O)c2c1O[C@H](c1cc(O)cc(O)c1)CC2=O | 15.5
2 | COc1ccc2c3c([nH]c2c1)[C@H](C=C(C)C)N1C(=O)[C@@H]2CCCN2C(=O)[C@@H]1C3 [FUMITREMORGIN] | 0.8
3 | CC(C)=CCC/C(C)=C/Cc1c(O)cc2oc(-c3ccc(O)cc3)c(O)c(=O)c2c1O [MACARANGIN] | 5.7
4 | O=c1cc(-c2ccc(O)c(O)c2)oc2cc(O)cc(O)c12 [LUTEOLIN] | 8.9
5 | CC(C)=CCc1c(O)cc(O)c2c1O[C@H](c1ccc(O)cc1)CC2=O | 3.1
6 | C/C(=C/Cc1c(-c2cc(O)c(O)cc2O)oc2c3c(cc(O)c2c1=O)OC(C)(C)C=C3)CO | 6.5
7 | COc1cc(O)c2c(=O)c(OC)c(-c3ccc(OC)c(O)c3)oc2c1 [AYANIN] | 5.7
8 | COc1ccc([C@@H]2CC(=O)c3c(O)cc(O)c(CC=C(C)C)c3O2)cc1 | 22.6
9 | CC(C)=CCC/C(C)=C/Cc1c(O)cc(O)c2c1O[C@H](c1ccc(O)cc1)CC2=O [SOPHORAFLAVANONE A] | 12.3

More lines, in order of falling IC50, values ahead:

Row | IC50 [µM] | Compound
10 | 17.2 | COc1cc(O)c2c(=O)c(OC)c(-c3ccc(O)c(OC)c3)oc2c1 [PACHYPODOL]
11 | 8.4 | COc1cc(O)c(CC=C(C)C)c(-c2oc3cc(O)cc(O)c3c(=O)c2OC)c1
12 | 6.6 | COc1ccc([C@@H]2CC(=O)c3c(O)cc(O)c(CC=C(C)C)c3O2)cc1O
13 | 4.1 | CC(C)=CCc1c(O)c(CC=C(C)C)c2c(c1O)C(=O)C[C@@H](c1cc(O)cc(O)c1)O2
